The target of this assay is T1, Angiotensin-umwandelnde Enzym (ACE) (Oryctolagus cuniculus, UniProt P12822).
T1 construct: Es wurde ein Kaninchen-Lungengewebe-Präparat; from tissue; host or cells: lung of adult male rabbits
T1 sequence (P12822 34-1310): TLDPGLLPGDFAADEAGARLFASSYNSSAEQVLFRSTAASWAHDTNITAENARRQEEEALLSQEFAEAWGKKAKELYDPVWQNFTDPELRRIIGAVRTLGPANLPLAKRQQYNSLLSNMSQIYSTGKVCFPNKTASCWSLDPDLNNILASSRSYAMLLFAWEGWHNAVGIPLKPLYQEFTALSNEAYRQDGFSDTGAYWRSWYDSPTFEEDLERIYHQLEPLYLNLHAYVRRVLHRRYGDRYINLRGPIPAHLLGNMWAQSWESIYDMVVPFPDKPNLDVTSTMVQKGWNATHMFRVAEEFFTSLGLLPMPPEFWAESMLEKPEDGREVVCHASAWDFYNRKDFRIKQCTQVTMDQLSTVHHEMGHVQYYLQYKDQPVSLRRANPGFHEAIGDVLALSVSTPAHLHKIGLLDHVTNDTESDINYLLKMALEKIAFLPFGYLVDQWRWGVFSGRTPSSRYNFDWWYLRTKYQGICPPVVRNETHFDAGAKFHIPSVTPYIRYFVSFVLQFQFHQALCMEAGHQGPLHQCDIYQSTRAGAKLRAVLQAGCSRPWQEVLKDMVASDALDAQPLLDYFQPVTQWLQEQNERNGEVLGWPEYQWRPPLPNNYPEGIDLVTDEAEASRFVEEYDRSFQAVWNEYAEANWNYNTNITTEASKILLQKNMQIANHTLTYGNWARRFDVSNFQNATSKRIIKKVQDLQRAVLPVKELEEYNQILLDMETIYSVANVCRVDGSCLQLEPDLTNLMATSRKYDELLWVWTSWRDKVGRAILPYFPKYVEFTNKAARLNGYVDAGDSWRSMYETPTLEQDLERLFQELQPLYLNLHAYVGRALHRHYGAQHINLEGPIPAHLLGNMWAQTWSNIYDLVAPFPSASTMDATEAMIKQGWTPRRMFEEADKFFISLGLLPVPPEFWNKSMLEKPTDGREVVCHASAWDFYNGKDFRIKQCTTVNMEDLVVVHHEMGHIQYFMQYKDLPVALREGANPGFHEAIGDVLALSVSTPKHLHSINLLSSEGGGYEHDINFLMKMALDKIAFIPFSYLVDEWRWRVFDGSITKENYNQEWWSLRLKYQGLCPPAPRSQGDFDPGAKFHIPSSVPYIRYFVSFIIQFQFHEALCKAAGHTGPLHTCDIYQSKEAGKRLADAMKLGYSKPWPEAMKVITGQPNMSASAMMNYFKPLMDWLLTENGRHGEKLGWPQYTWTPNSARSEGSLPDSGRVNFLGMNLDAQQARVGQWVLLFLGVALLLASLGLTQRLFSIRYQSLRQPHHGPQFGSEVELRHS
In words: In vitro ACE inhibition (ACEI), rabbit lung tissue preparation, hippuryl-histidyl-leucine substrate, method of Cheung and Cushman. It is filed as biochemical, Kaninchen. An excerpt:
Die in-vitro-Hemmung des Enzyms, welches das Angiotensin umwandelt, kann bei den Verbindungen dieser Erfindung analog zu Biochim. Biophys. Acta 293, 451 (1973) nachgewiesen werden. Gemäß dieser Methode werden die genannten Verbindungen in ungefähr 1 mMol-Konzentrationen in Phosphatpuffer aufgelöst. Zu 100 Mikroliter von Lösungen der Testverbindung in Phosphatpuffer, welche man auf die gewünschte Konzentration verdünnt, gibt man zuerst 100 Mikroliter von 5 millimolarem Hippuryl-histidylleucin in Phosphatpuffer und dann 50 µl des Angiotensin-umwandelnden Enzyms. Dieses Enzym wird aus Lungen von erwachsenen männlichen Kaninchen in Tris-Puffer, der Kalium- und Magnesiumchlorid und auch Rohrzucker enthält, hergestellt. Die genannten Lösungen werden 30 Minuten bei 37 °C inkubiert, und die weitere Reaktion wird durch Hinzufügen von 0,75 ml einer 0,6-normalen wäßrigen Natriumhydroxidlösung gestoppt. Dann gibt man bei Zimmertemperatur 100 Mikroliter einer 0,2 %-igen Lösung von o-Phthalaldehyd in Methanol und nach 10 Minuten 100 Mikroliter 6n-Chlorwasserstoffsäure dazu. Diese Proben werden in einem Spektrophotometer bei 360 nm mit Wasser verglichen, und ihre optische Dichte wird bestimmt. Diese Werte werden durch einen Konversionsfaktor einer Standard-Kurve angepaßt, wobei man die während der genannten Inkubation von 30 Minuten gebildete Histidyl-leucin-Menge in Nanomolen erhält. Die Ergebnisse werden, um den IC50-Wert zu bestimmen, gegenüber den Wirkstoff-Konzentrationen graphisch als Kurve dargestellt. Der IC50-Wert bedeutet diejenige WirkstoffKonzentration, welche die Hälfte der Aktivität einer Kontrollprobe, die keinen Wirkstoff enthält, ergibt. Als Illustration der Erfindung sei auf das « höher schmelzende 1-Carboxymethyl-3-(1-carboxy-3-phenylpro- pylamino)-2,3,4,5-tetrahydro-1H-[1]-benzazepin-2-on des Beispiels 9 und auf das entsprechende S,S-Enantiomere des Beispiels 19 hingewiesen, welche einen lC50-Wert von 5,2 × 10^-9 M bzw. 1,7 × 10^-9 M aufweisen. Das entsprechende « niedriger schmelzende » 1-Carboxymethyl-3-(1-carboxy-3-phenylpropy- iamino)-2,3,4,5-tetrahydro-1H-[1] benzazepin-2-on des Beispiels 8 zeigt einen lC50-Wert von 5,8 ×10^-8 M.
Die Prüfung der Wirkung von Verbindungen ist gemäss den Methoden für die Auswertung der Hemmung des Enzyms, welches das Angiotensin umwandelt [angiotensin converting enzyme = ACE] durchgeführt worden. In der biochemischen Beurteilung der in vitro ACE-Hemmung [ACE inhibition = A-CEI] wird die Aktivität einer Verbindung im Kaninchen-Lungengewebe bestimmt.
Es wurde ein Kaninchen-Lungengewebe-Präparat [Das and Saffer, J. Biol. Chem. 250 : 6762 (1975) für die Bestimmung von ACE nach der Methode von Cheung und Cushman [Cheung and Cushman, Biochim. Biophys. Acta 293, 451 (1973)] verwendet. In dieser Methode wird die Menge des Histidyl-leucins. welche aus einem synthetischen Substrat innerhalb einer Inkubation von 30 Minuten bei 37° freigesetzt wird, spektrophotometrisch bestimmt. Die lC50-Werte der ACE-Hemmung werden dann graphisch berechnet. Der lC50-Wert ist die Konzentration (in Mol) der getesteten Verbindung, welche die in Abwesenheit der Testsubstanz entstehende Menge des Histidyl-leucins um 50 % herabsetzt.

Setting [1] is: rabbit lung tissue preparation, 30 min incubation at 37°, read-out: In vitro ACEI IC50.

Structures are written as SMILES. Like-named read-outs stand apart in the source and are kept apart here.

For the compound `CCOC(=O)[C@H](CCc1ccccc1)N[C@H]1CCc2ccccc2N(CC(=O)O)C1=O` (racemic) [Beispiel 1, 1-Carboxymethyl-3-(1-äthoxycarbonyl-3-phenylpropylamino)-2,3,4,5-tetrahydro-1H-[1] benzazepin-2-on], under setting [1], the IC50 – broadly, the midpoint of a concentration-inhibition curve – amounted to 600 nM. For `O=C(O)CN1C(=O)[C@@H](N[C@@H](CCc2ccccc2)C(=O)O)CCc2ccccc21` [Beispiel 19, 1-Carboxymethyl-3S-(1S-carboxy-3-phenylpropylamino)-2,3,4,5-tetrahydro-1H-[1] benzazepin-2-on], the IC50 is, setting by setting: (ACE from rabbit lung, 30 min at 37 °C, read-out: IC50-Wert) 1.7 nM; under setting [1], 2 nM.

The record behind these values is patent EP0072352B1, “Benzazepin-2-ones, process for their preparation, pharmaceutical preparations containing these compounds and the compounds for therapeutical use” (CIBA-GEIGY AG, priority 1981, dated 1983).
